Results reported in patent US20230277483A1, “COMPOSITIONS AND METHODS TO TREAT INFLAMMATION” (University of Iowa Research Foundation, priority 2022, published 2023).

Test system: human gingival fibroblasts (HGF)
Assay: Proinflammatory cytokines after Pg-LPS challenge (qRT-PCR, ELISA, antibody array)
Type: cell-based
Description: Sg metabolites modulate proinflammatory cytokines in human periodontal associated cells in vitro. Sg were cultured in a total of 40 ml DMEM for 24 hrs. After 200 μl of Sg suspension reached 0.2 at OD600 value in a 96-well plate, the Sg metabolites were collected by centrifugation at 3000 g for 10 min and then filtered through a 0.22 μm filter. No toxicity of Sg metabolites was detected using an MTT assay on primary human bone marrow mesenchymal stromal cells (BMSCs) and primary human gingival fibroblasts (HGF) (data no shown). The modulation of Sg metabolites on inflammatory cytokines was tested using human monocyte-derived macrophages (MDM) and HGF. The MDM were generated by inducing a human macrophage cell line (THP-1) using PMA at 10 ng/ml. The MDM at 2×10^6 cells/per well and HGF at 2×10^4 cells/per well were cultured in 24-well plates using DMEM with 10% FBS and 1% PS. The Sg metabolites at 1 and 5% v/v were added and incubated for 24 hrs before challenging with Pg-LPS at 100 ng/ml.
L-Norleucine as well as other metabolites modulate proinflammatory cytokines in macrophages and HGF. L-Norleucine was obtained commercially (Sigma) and dissolved in DMEM. Mouse macrophages and human HGF were cultured with DMEM supplemented with different concentrations of L-Norleucine and subsequently challenged with Pg-LPS at 100 ng/ml.
Human monocyte-derived macrophages (MDM) using THP-1 cells and HGF were cultured in a 24-well plate with DMEM and challenged with Pg-LPS at 100 ng/ml.
In addition, freshly isolated epidydimal white adipose tissues (eWAT) from mice on a HFD for 16 weeks were minced and cultured in 24-well plates and treated with HCA at 0.5 and 1.0 μM in DMEM/F-12 containing 10% cosmic calf serum (CCS) and 1% penicillin-streptomycin (basal growth media, BGM). […] These preliminary data are strong evidence that Sg metabolites have the potential to modulate host inflammatory responses and attenuate inflammation.
HCA promotes proliferation of health related bacteria and inhibits proliferation and attachment of periodontopathogenic bacteria. Promoting the growth of health-related commensal bacteria while inhibiting proliferation and attachment of pathogenic bacteria may be effective at preventing or treating periodontal inflammation. To determine if HCA has an effect on the growth properties of commensal bacteria and periodontopathogens, HCA at different concentrations was added to aerobic culture of S. mitis and S. oralis and anaerobic culture of T. denticola as described in our published manuscript (see detail in Shu et al, Journal of Periodontology, 2022). FIGS. 18A-C summarize the functions of HCA on the proliferation of specific commensal and pathogenic bacteria. […] Furthermore, the function of HCA on P. gingivalis attachment, a key parameter of adhesion and biofilm formation by periodontopathogenic bacteria, was investigated. […] Attachment measurements of P. gingivalis were performed based on our published studies (see detail in Shu et al, Journal of Periodontology, 2022). […] To test the biocompatibility and anti-inflammatory properties of HCA, human monocyte-derived macrophages (MDM) and gingival fibroblasts (HGF) were prepared as described in our previous studies. The cells were then treated with HCA from 0.1 to 50 μM. No toxicity was observed after treatment with different concentrations of HCA in either cell type using an MTT assay (FIGS. 19A and B, left column). The anti-inflammatory function of HCA on MDM and HGF after exposure to P. gingivalis lipopolysaccharide (PG-LPS) was investigated. […] HCA mitigates inflammation and affects the composition of microbiomes in vivo. Recent studies investigated whether HCA modulates periodontal inflammation using a mouse model. To induce periodontal inflammation, a total of 1 μl Pg-LPS at 10 μg/μl was directly injected twice a week into the interdental region between maxillary molars of C57BL/6J mice using a Hamilton1700 series syringe according to our previously published studies. […]

## O=C(O)CCCCCO [HCA, 6-hydroxycaproic acid]
HCA at 0.1 μM, 6 hours following PG-LPS challenge at 0.1 μg/mL
  transcripts of IL-1β, IL-6, and IL-8: significantly downregulated
HCA at 0.1 μM, HGF lysate, after 24 hrs
  protein levels of IL-6 and IL-8: significantly reduced
HCA at 0.1 and 1.0 μM, Pg-LPS at 100 ng/ml, after 6 hrs
  transcripts of IL-1β, 6, and 8: significantly downregulated
At 0.1 μg after Pg-LPS challenge
  proinflammatory cytokines (transcripts of IL-1β, 6 and 8): modulate
